# Measured values as given in patent US7115604B2, “Method for treating erectile dysfunction” (Orion Corporation, priority 2000, dated 2006).
# System: NYHA III heart failure patients, who had not had erections for several years
# Experiment: Clinical data: levosimendan infusion in heart failure patients with erectile dysfunction
# Assay type: in vivo, man
# Description: Clinical Data Two NYHA III heart failure patients, who had not had erections for several years were treated with levosimendan. Patient I was exposed to 0.05 μg/kg/min continuous infusion of levosimendan for 7 days.
# [1] = Patient I, 0.05 μg/kg/min continuous infusion for 7 days
smiles,measurement,setting,value
"CC1CC(=O)NN=C1c1ccc(NN=C(C#N)C#N)cc1 (single isomer, unassigned; (-)) [levosimendan, (−)-[[4-(1,4,5,6-tetrahydro-4-methyl-6-oxo-3-pyridazinyl)phenyl]hydrazono]propanedinitrile]",erections during the study,[1],erections in the mornings during the whole study
same,time to reported erections after starting the infusion,[1],1 days
same,erections reported,"Patient II, 0.1 μg/kg/min continuous infusion for 2 days",reported erections
